Assays:
R6/2 mice [1] = assay: T2-MRI brain volumetry; type: in vivo, mouse; details: chronic administration, 13 weeks
Method: MRI analysis was performed for all mice at the age of 13 weeks in a horizontal 7T magnet with bore size 160 mm (Magnex Scientific Ltd., Oxford, UK) equipped with Magnex gradient set (max. gradient strength 400 mT/m, bore 100 mm) interfaced to a Varian DirectDrive console (Varian, Inc., Palo Alto, CA) using a volume coil for transmission and surface phased array coil for receiving (Rapid Biomedical GmbH, Rimpar, Germany). Isoflurane -anesthetized mice were fixed to a head holder and positioned in the magnet bore in a standard orientation relative to gradient coils. Rectal temperature (TC-1000 Temperature Controller, CWE Inc., Ardmore, PA, USA) and respiration (ECG Trigger Unit, Rapid Biomedical GmbH) were monitored throughout the study and the body temperature was kept at 36-37°C. […]
All values are presented as mean ± Standard Error of Mean (SEM), and differences are considered to be statistically significant at the p < 0.05 level. […] Differences between group means were analyzed by 1-way-ANOVA followed by Dunnett’s test (comparison to the control (=vehicle treated TG mice) group). The acquisition of the Cued two-choice swim test was analyzed using Fisher’s exact test.

[2] = Body weight during chronic dosing in R6/2 mice; type: in vivo, mouse; details: BID, ANOVA
Method: Body weight was measured starting at the age of 4 weeks and a further two times per week on the same day until the end of the study. This was done just prior to animals receiving doses for those days.
(§1) All values are presented as mean ± Standard Error of Mean (SEM), and differences are considered to be statistically significant at the p < 0.05 level. Statistical analysis was performed using StatsDirect statistical software. Differences between group means were analyzed by 1-way-ANOVA followed by Dunnett’s test (comparison to the control (=vehicle treated TG mice) group). The acquisition of the Cued two-choice swim test was analyzed using Fisher’s exact test.

PDE5 = test system: PDE5; design: method as in PMID 9216839, PMID 17697115, PMID 8961086, PMID 7581878; details: [12] uses full length PDE5 derived from bovine lung, ref [12], [23], [27], [28], read-out: reported IC50; cited from earlier work
R6/2 mice [3] = assay: Rotarod; type: in vivo, mouse; details: BID, ANOVA
Method: Motor function testing including open field and rear climbing tests were commenced at 4 weeks of age and continued at weeks 6, 8 and 12, for grip strength test at age weeks 4 and 12 and for rotarod at age weeks 4, 6 and 8. Compound treatment was started at 4 weeks of age after the baseline behavioral tests.
Mice were tested at age weeks 4, 6 and 8 over 3 consecutive days (Wed, Thu, Fri). Each daily session included a training trial of 5 min at 4 RPM on the rotarod apparatus (AccuScan Instruments, Columbus, USA). One hour later, the animals were tested for 3 consecutive accelerating trials of 6 min with the speed changing from 0 to 40 RPM over 360 seconds and an inter-trial interval at least 30 min. The latency to fall from the rod was recorded. Mice remaining on the rod for more than 360 s were removed and their time scored as 360 sec.
as §1

CN1C(=O)c2nc(Cc3ccc(C(F)(F)F)cc3)[nH]c2N2C1=N[C@H]1CCC[C@H]12 [SCH-51866, (+)-cis-5,6a,7,8,9,9a-hexahydro-2-[4-[trifluro-methyl]phenylmethyl]-5-methyl-cylopent[4,5]imidazo [2,1-b]purin-4(3H)one]
brain volume, cortex (MRI) (R6/2 mice [1]): no improvement in brain volume
brain volume, striatum (MRI) (R6/2 mice [1]): no improvement in brain volume
Body Weight: p vs Vehicle-treated R6/2 mice ([2]; Age Week 4, 10 mg/kg p.o.): ANOVA: p=0.878
Body Weight: p vs Vehicle-treated R6/2 mice ([2]; Age Week 4, 30 mg/kg p.o.): ANOVA: p=0.878
Body Weight: p vs Vehicle-treated R6/2 mice ([2]; Age Week 5, 10 mg/kg p.o.): ANOVA: p=0.762
Body Weight: p vs Vehicle-treated R6/2 mice ([2]; Age Week 5, 30 mg/kg p.o.): ANOVA: p=0.762
Body Weight: p vs Vehicle-treated R6/2 mice ([2]; Age Week 6, 10 mg/kg p.o.): ANOVA: p=0.934
Body Weight: p vs Vehicle-treated R6/2 mice ([2]; Age Week 6, 30 mg/kg p.o.): ANOVA: p=0.934
Body Weight: p vs Vehicle-treated R6/2 mice ([2]; Age Week 7, 10 mg/kg p.o.): ANOVA: p=0.766
Body Weight: p vs Vehicle-treated R6/2 mice ([2]; Age Week 7, 30 mg/kg p.o.): ANOVA: p=0.766
Body Weight: p vs Vehicle-treated R6/2 mice ([2]; Age Week 8, 10 mg/kg p.o.): ANOVA: p=0.926
Body Weight: p vs Vehicle-treated R6/2 mice ([2]; Age Week 8, 30 mg/kg p.o.): ANOVA: p=0.926
Body Weight: p vs Vehicle-treated R6/2 mice ([2]; Age Week 9, 10 mg/kg p.o.): ANOVA: p=0.886
Body Weight: p vs Vehicle-treated R6/2 mice ([2]; Age Week 9, 30 mg/kg p.o.): ANOVA: p=0.886
Body Weight: p vs Vehicle-treated R6/2 mice ([2]; Age Week 10, 10 mg/kg p.o.): ANOVA: p=0.969
Body Weight: p vs Vehicle-treated R6/2 mice ([2]; Age Week 10, 30 mg/kg p.o.): ANOVA: p=0.969
Body Weight: p vs Vehicle-treated R6/2 mice ([2]; Age Week 11, 10 mg/kg p.o.): ANOVA: p=0.891
Body Weight: p vs Vehicle-treated R6/2 mice ([2]; Age Week 11, 30 mg/kg p.o.): ANOVA: p=0.891
Body Weight: p vs Vehicle-treated R6/2 mice ([2]; Age Week 12, 10 mg/kg p.o.): ANOVA: p=0.774
Body Weight: p vs Vehicle-treated R6/2 mice ([2]; Age Week 12, 30 mg/kg p.o.): ANOVA: p=0.774
Body Weight: p vs Vehicle-treated R6/2 mice ([2]; Age Week 13, 10 mg/kg p.o.): ANOVA: p=0.855
Body Weight: p vs Vehicle-treated R6/2 mice ([2]; Age Week 13, 30 mg/kg p.o.): ANOVA: p=0.855
Body Weight: p vs Vehicle-treated R6/2 mice ([2]; Age Week 14, 10 mg/kg p.o.): ANOVA: p=0.878
Body Weight: p vs Vehicle-treated R6/2 mice ([2]; Age Week 14, 30 mg/kg p.o.): ANOVA: p=0.878
Body Weight: p vs Vehicle-treated R6/2 mice ([2]; Age Week 15, 10 mg/kg p.o.): ANOVA: p=0.989
Body Weight: p vs Vehicle-treated R6/2 mice ([2]; Age Week 15, 30 mg/kg p.o.): ANOVA: p=0.989
Body Weight: p vs Vehicle-treated R6/2 mice ([2]; Age Week 16, 10 mg/kg p.o.): ANOVA: p=0.651
Body Weight: p vs Vehicle-treated R6/2 mice ([2]; Age Week 16, 30 mg/kg p.o.): ANOVA: p=0.651
Body Weight: p vs Vehicle-treated R6/2 mice ([2]; Age Week 17, 10 mg/kg p.o.): ANOVA: p=0.817
Body Weight: p vs Vehicle-treated R6/2 mice ([2]; Age Week 17, 30 mg/kg p.o.): ANOVA: p=0.817
Body Weight: p vs Vehicle-treated R6/2 mice ([2]; Age Week 18, 10 mg/kg p.o.): ANOVA: p=0.644
Body Weight: p vs Vehicle-treated R6/2 mice ([2]; Age Week 18, 30 mg/kg p.o.): ANOVA: p=0.644
Body Weight: p vs Vehicle-treated R6/2 mice ([2]; Age Week 19, 10 mg/kg p.o.): ANOVA: p=0.975
Body Weight: p vs Vehicle-treated R6/2 mice ([2]; Age Week 19, 30 mg/kg p.o.): ANOVA: p=0.975
Body Weight: p vs Vehicle-treated R6/2 mice ([2]; Age Week 20, 10 mg/kg p.o.): ANOVA: p=0.900
Body Weight: p vs Vehicle-treated R6/2 mice ([2]; Age Week 20, 30 mg/kg p.o.): ANOVA: p=0.900
Body Weight: p vs Vehicle-treated R6/2 mice ([2]; Age Week 21, 10 mg/kg p.o.): ANOVA: p=0.996
Body Weight: p vs Vehicle-treated R6/2 mice ([2]; Age Week 21, 30 mg/kg p.o.): ANOVA: p=0.996
IC50 (PDE5): 60 nM
Rotarod: p vs Vehicle-treated R6/2 mice (R6/2 mice [3]; Age Week 4, 10 mg/kg p.o.): ANOVA: p=0.458
Rotarod: p vs Vehicle-treated R6/2 mice (R6/2 mice [3]; Age Week 4, 30 mg/kg p.o.): ANOVA: p=0.458
Rotarod: p vs Vehicle-treated R6/2 mice (R6/2 mice [3]; Age Week 6, 10 mg/kg p.o.): ANOVA: p=0.262
Rotarod: p vs Vehicle-treated R6/2 mice (R6/2 mice [3]; Age Week 6, 30 mg/kg p.o.): ANOVA: p=0.262
Rotarod: p vs Vehicle-treated R6/2 mice (R6/2 mice [3]; Age Week 8, 10 mg/kg p.o.): ANOVA: p=0.171
Rotarod: p vs Vehicle-treated R6/2 mice (R6/2 mice [3]; Age Week 8, 30 mg/kg p.o.): ANOVA: p=0.171

Reference: PMC3923778 (PLoS Currents, 2014)
